The text below walks through data of patent US20090312349A1, “ANTI-INFLAMMATORY MEDICAMENTS” (priority 2004, published 2009).

SMILES strings stand for the structures.

T1 sequence (Q16539 whole entry): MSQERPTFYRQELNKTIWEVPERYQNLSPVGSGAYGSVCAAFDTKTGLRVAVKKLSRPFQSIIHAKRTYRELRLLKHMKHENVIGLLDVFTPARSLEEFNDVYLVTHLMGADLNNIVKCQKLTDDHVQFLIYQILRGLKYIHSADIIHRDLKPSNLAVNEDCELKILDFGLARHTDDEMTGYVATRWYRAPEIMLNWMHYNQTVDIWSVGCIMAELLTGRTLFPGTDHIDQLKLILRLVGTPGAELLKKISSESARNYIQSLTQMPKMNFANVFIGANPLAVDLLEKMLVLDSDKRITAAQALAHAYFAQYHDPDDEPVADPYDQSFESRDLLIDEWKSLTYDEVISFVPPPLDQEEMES

The first test has as its target T1, phospho p-38 alpha kinase (Homo sapiens, UniProt Q16539).
T1 construct: purchased Panvera
In words: P-38 alpha kinase assay (spectrophotometric, pyruvate kinase/lactate dehydrogenase coupled). Particulars: Table 5; @ 0.1 uM. The test is classed as biochemical. As for the experimental part: In this assay, the oxidation of NADH was continuously measured spectrophometrically. […] The reaction was initiated by adding ATP. The absorption at 340 nm was monitored continuously for up to 4 hours at 30° C. on Polarstar Optima plate reader (BMG). The kinase activity (reaction rate) was calculated from the slope at the time frame from 1.5 h to 2 h.
For inhibition determinations, test compounds were incubated with the reaction mixture for ˜5 min before adding ATP to start the reaction. […] IC50 values were calculated from a series of % inhibition values determined at a range of concentrations of each inhibitor using Prism to process the data and fit inhibition curves. Generally, the rates obtained at the time frame of 1.5 h to 2 h were used for these calculations.
For `CCOC(=O)c1ccc(-n2nc(C)cc2NC(=O)Nc2cccc(Cl)c2Cl)cc1` [Example 346, ethyl 4-{5-[3-(2,3-dichlorophenyl)ureido]-3-methyl-1H-pyrazol-1-yl}benzoate], the “% @ concentration, uM” value came to 19%. Turning to `Cc1cc(NC(=O)Nc2cccc(Cl)c2Cl)n(-c2ccc(CO)cc2)n1` [Example 347, 1-(2,3-dichlorophenyl)-3-{1-[4-(hydroxymethyl)phenyl]-3-methyl-1H pyrazol-5-yl}urea], the “% @ concentration, uM” value was 8%.

On to `Cc1cc(NC(=O)Nc2cccc3ccccc23)n(-c2ccc(C(O)C(F)(F)F)cc2)n1` (stereo not drawn) [Example 348, 1-{3-methyl-1-[4-(2,2,2-trifluoro-1-hydroxyethyl)phenyl]-1H-pyrazol-5-yl}-3-(naphthalen-1-yl)urea], for which the “% @ concentration, uM” value stood at 17%. The same measure, in the same setting: the value for `CC(C)c1cc(NC(=O)Nc2cccc3ccccc23)n(-c2cccc(C=O)c2)n1` [Example 350, 1-[1-(3-formylphenyl)-3-isopropyl-1H-pyrazol-5-yl]-3-(naphthalen-1-yl)urea] was 39%. On the same count and under the same terms, next, `CN1CCN(C(=O)NCc2cccc(-n3nc(C(C)(C)C)cc3NC(=O)Nc3ccc(Cl)cc3)c2)CC1` [Example 390, 1-{3-t-butyl-1-(3-[(1-methylpiperazine-4-carboxamido)methyl]phenyl}-1H-pyrazol-5-yl)-3-(4-chlorophenyl)urea]: 24%.

Staying with this test, now noted: Table 5; @ 1 uM.
As to `CCOC(=O)c1ccc(-n2nc(C)cc2NC(=O)Nc2cccc(Cl)c2Cl)cc1` [Example 346, ethyl 4-{5-[3-(2,3-dichlorophenyl)ureido]-3-methyl-1H-pyrazol-1-yl}benzoate], the “% @ concentration, uM” value is recorded as 63%. Turning to `Cc1cc(NC(=O)Nc2cccc(Cl)c2Cl)n(-c2ccc(CO)cc2)n1` [Example 347, 1-(2,3-dichlorophenyl)-3-{1-[4-(hydroxymethyl)phenyl]-3-methyl-1H pyrazol-5-yl}urea], the “% @ concentration, uM” value was 31%. Regarding `Cc1cc(NC(=O)Nc2cccc3ccccc23)n(-c2ccc(C(O)C(F)(F)F)cc2)n1` (stereo not drawn) [Example 348, 1-{3-methyl-1-[4-(2,2,2-trifluoro-1-hydroxyethyl)phenyl]-1H-pyrazol-5-yl}-3-(naphthalen-1-yl)urea], the “% @ concentration, uM” value was 47%. Regarding `CC(C)c1cc(NC(=O)Nc2cccc3ccccc23)n(-c2cccc(C=O)c2)n1` [Example 350, 1-[1-(3-formylphenyl)-3-isopropyl-1H-pyrazol-5-yl]-3-(naphthalen-1-yl)urea], the “% @ concentration, uM” value amounted to 64%. Still for that read-out and setting: the value for `CN(C)C(=O)NCc1cccc(-n2nc(C(C)(C)C)cc2NC(=O)Nc2cccc3ccccc23)c1` [Example 384, 1-{3-t-butyl-1-[3-(3,3-dimethylureidomethyl)phenyl]-1H-pyrazol-5-yl}-3-(naphthalen 1-yl)urea] was 72%. Regarding `CN1CCN(C(=O)NCc2cccc(-n3nc(C(C)(C)C)cc3NC(=O)Nc3ccc(Cl)cc3)c2)CC1` [Example 390, 1-{3-t-butyl-1-(3-[(1-methylpiperazine-4-carboxamido)methyl]phenyl}-1H-pyrazol-5-yl)-3-(4-chlorophenyl)urea], the “% @ concentration, uM” value is given as 63%.

Still in this test, the particulars now being: Table 5; @ 10 uM.
In the case of `CCOC(=O)c1cccc(-n2nc(C(C)(C)C)cc2NC(=O)Nc2cccc3ccccc23)c1` [Example 366, ethyl 3-{3-t-butyl-5-[3-(naphthalen-1-yl)ureido]-1H-pyrazol-1-yl}benzoate], the “% @ concentration, uM” value is recorded as 53% @ 10.

Consider `CC(C)(C)c1cc(NC(=O)Nc2cccc3ccccc23)n(-c2cccc(CO)c2)n1` [Example 367, 1-{3-t-butyl-1-[3-(hydroxymethyl)phenyl]-1H-pyrazol-5-yl)-3-(naphthalen-1-yl)-urea], for which the “% @ concentration, uM” value was 85% @ 10. For the compound `CN(C)C(=O)NCc1cccc(-n2nc(C(C)(C)C)cc2NC(=O)Nc2cccc3ccccc23)c1` [Example 384, 1-{3-t-butyl-1-[3-(3,3-dimethylureidomethyl)phenyl]-1H-pyrazol-5-yl}-3-(naphthalen 1-yl)urea], the “% @ concentration, uM” value came out at 96%.

Still in this test, the particulars now being: Table 5; assay not named; read-out: uM.
With `CCOC(=O)c1ccc(-n2nc(C)cc2NC(=O)Nc2ccc(Cl)cc2)cc1` [Example 344, ethyl 4-{5-[3-(4-chlorophenyl)ureido]-3-methyl-1H-pyrazol-1-yl}benzoate], the IC50 was determined as 0.18 µM. Consider `Cc1cc(NC(=O)Nc2ccc(Cl)cc2)n(-c2ccc(CO)cc2)n1` [Example 345, 1-(4-chlorophenyl)-3-{1-[4-(hydroxymethyl)phenyl]-3-methyl-1H-pyrazol-5-yl}urea], for which the IC50 was 0.27 µM.

As for `O=C(Nc1cccc(Cl)c1)Nc1cc(-c2ccccc2)nn1-c1cccc(CO)c1` [Example 352, 1-{3-phenyl-1-[3-(hydroxymethyl)phenyl]-1H-pyrazol-5-yl}-3-(3-chlorophenyl)urea], the IC50 came out at 0.043 µM.

On to `O=C(Nc1cccc(C(F)(F)F)c1)Nc1cc(-c2ccccc2)nn1-c1cccc(CO)c1` [Example 354, 1-{3-phenyl-1-[3-(hydroxymethyl)phenyl]-1H-pyrazol-5-yl}-3-(3-trifluoromethylphenyl)urea], for which the IC50 is 0.11 µM. Still for that read-out and setting: the value for `COc1cccc(NC(=O)Nc2cc(-c3ccccc3)nn2-c2cccc(CO)c2)c1` [Example 355, 1-{3-phenyl-1-[3-(hydroxymethyl)phenyl]-1H-pyrazol-5-yl}-3-(3-methoxyphenyl)urea] was 0.042 µM. For the compound `CCOC(=O)c1ccc(-n2nc(C(C)(C)C)cc2NC(=O)Nc2cccc3ccccc23)cc1` [Example 357, ethyl 4-{3-t-butyl-5-[3-(naphthalen-1-yl)ureido]-1H-pyrazol-1-yl}benzoate], the IC50 was found to be 0.13 µM. For `CC(C)(C)c1cc(NC(=O)Nc2cccc3ccccc23)n(-c2ccc(CO)cc2)n1` [Example 358, 1-{3-t-butyl-1-[4-(hydroxymethyl)phenyl]-1H-pyrazol-5-yl}-3-(naphthalen-1-yl)urea], the IC50 came out at 0.1 µM. With `CC(O)c1ccc(-n2nc(C(C)(C)C)cc2NC(=O)Nc2cccc3ccccc23)cc1` (stereo not drawn) [Example 360, 1-{3-t-butyl 1-[4-(1-hydroxyethyl)phenyl]-1H-pyrazol-5-yl}-3-(naphthalen-1-yl)urea], the IC50 was 0.39 µM.

For the compound `C#CC(O)c1ccc(-n2nc(C(C)(C)C)cc2NC(=O)Nc2cccc3ccccc23)cc1` (stereo not drawn) [Example 361, 1-{3-t-butyl-1-[4-(1-hydroxyprop-2-ynyl)phenyl]-1H-pyrazol-5-yl}-3-(naphthalen-1-yl)urea], the IC50 amounted to 0.87 µM. `CC(C)(C)c1cc(NC(=O)Nc2cccc(Cl)c2Cl)n(-c2ccc(CO)cc2)n1` [Example 363, 1-{3-t-butyl-1-[(hydroxymethyl)phenyl]-1H-pyrazol-5-yl}-3-(2,3-dichloro-phenyl)urea]: the IC50 amounted to 0.19 µM. For the compound `CC(C)(C)c1cc(NC(=O)Nc2cccc(Cl)c2Cl)n(-c2ccc(C(C)(C)O)cc2)n1` [Example 364, 1-{3-t-butyl-1-[4-(2-hydroxypropan-2-yl)phenyl]-1H-pyrazol-5-yl}-3-(2,3-dichlorophenyl)urea], the IC50 amounted to 0.01 µM. `CC(C)(C)c1cc(NC(=O)Nc2cccc(Cl)c2Cl)n(-c2ccc(C(=O)O)cc2)n1` [Example 365, 4{-3-t-butyl-5-[3-(2,3-dichlorophenyl)ureido]-1H-pyrazol-1-yl}benzoic acid]: the IC50 amounted to 0.007 µM. `CC(C)(C)c1cc(NC(=O)Nc2cccc(Cl)c2Cl)n(-c2cccc(CO)c2)n1` [Example 372, 1-[3-t-butyl-1-(3-hydroxymethyl-phenyl)-1H-pyrazol-5-yl]-3-(2,3-dichlorophenyl)-urea]: the IC50 is 1.46 µM. On to `CC(C)(C)c1cc(NC(=O)Nc2cccc(Cl)c2Cl)n(-c2cccc(C(=O)O)c2)n1` [Example 374, 3-{3-t-butyl-5-[3-(2,3-dichlorophenyl)ureido]-1H-pyrazol-1-yl}benzoic acid], for which the IC50 is 0.037 µM. On to `CC(C)(C)c1cc(NC(=O)Nc2ccc(Cl)cc2)n(-c2cccc(CO)c2)n1` [Example 376], for which the IC50 was determined as 0.48 µM. Take `CC(C)(C)c1cc(NC(=O)Nc2ccc(Cl)cc2)n(-c2cccc(CN3C(=O)NC(=O)C3=O)c2)n1` [Example 378, 1-{3-t-butyl-2-{3-[(2,4,5-trioxoimidazolidin-1-yl)methyl]phenyl}-1H-pyrazol-3-yl}-3-(4-chlorophenyl)urea]: the IC50 amounted to 0.4 µM.

On to `CC(C)(C)c1cc(NC(=O)Nc2ccc(Cl)cc2)n(-c2cccc(CN3C(=O)C(=O)NS3(=O)=O)c2)n1` [Example 380, 1-{5-t-butyl-2-[3-(1,1,3,4-tetraoxo-1λ^6-[1,2,5]thiadiazolidin-2-ylmethyl)phenyl]-2H-pyrazol-3-yl}-3-(4-chlorophenyl)urea], for which the IC50 was 2 µM.

Turning to `CC(C)(C)c1cc(NC(=O)Nc2cccc3ccccc23)n(-c2cccc(CNC(=O)N3CCOCC3)c2)n1` [Example 382, 1-(3-t-butyl-1-{3-[(morpholine-4-carboxamido)methyl]phenyl}-1H-pyrazol-5-yl)-3-(naphthalen-1-yl)urea], the IC50 was found to be 0.88 µM. Still for that read-out and setting: the value for `CC(C)(C)c1cc(NC(=O)Nc2cccc3ccccc23)n(-c2cccc(CNC(=O)N3CCCC3)c2)n1` [Example 383, 1-(3-t-butyl-1-{3-[(pyrrolidine-1-carboxamido)methyl]phenyl}-1H-pyrazol-5-yl)-3-(naphthalen-1-yl)urea] was 0.1 µM. For the compound `CC(C)(C)c1cc(NC(=O)Nc2ccc(Cl)cc2)n(-c2cccc(CNC(=O)N3CCCCC3)c2)n1` [Example 385, 1-(3-t-butyl-1-{3-[(piperidine-1-carboxamido)methyl]phenyl}-1H-pyrazol-5-yl)-3-(4-chlorophenyl)urea], the IC50 amounted to 0.03 µM. Turning to `CC(C)(C)c1cc(NC(=O)Nc2ccc(Cl)cc2)n(-c2cccc(CNC(=O)N3CCOCC3)c2)n1` [Example 386, 1-(3-t-butyl-1-{3-[(morpholine-4-carboxamido)methyl]phenyl}-1H-pyrazol-5-yl)-3-(4-chlorophenyl)urea], the IC50 came out at 0.114 µM. Take `CC(C)(C)c1cc(NC(=O)Nc2ccc(Cl)cc2)n(-c2cccc(CNC(=O)N3CCCC3)c2)n1` [Example 387, 1-(3-r-butyl-1-{3-[(pyrrolidine-1-carboxamido)methyl]phenyl}-1H-pyrazol-5-yl)-3-(4-chlorophenyl)urea]: the IC50 is 4.45 µM. For `CN(C)C(=O)NCc1cccc(-n2nc(C(C)(C)C)cc2NC(=O)Nc2ccc(Cl)cc2)c1` [Example 388, 1-{3-t-butyl-1-[3-(3,3-dimethylureidomethyl)phenyl]-1H-pyrazol-5-yl}-3-(4-chlorophenyl)urea], the IC50 is 1.65 µM. On the same count and under the same terms, next, `CN1CCN(C(=O)NCc2cccc(-n3nc(C(C)(C)C)cc3NC(=O)Nc3cccc4ccccc34)c2)CC1` [Example 389, 1-{3-t-butyl-1-(3-[(1-methylpiperazine-4-carboxamido)methyl]phenyl}-1H-pyrazol-5-yl)-3-(naphthalen 1-yl)urea]: 0.09 µM; `CC(C)(C)c1cc(NC(=O)Nc2ccc(Cl)cc2)n(-c2cccc(CN3C(=O)C(=O)N(c4ccccc4)C3=O)c2)n1` [Example 391, 1-{3-t-butyl-1-(3-[(2,4,5-trioxo-3-phenylimidazolidin-1-yl)methyl]phenyl)-1H-pyrazol-5-yl}-3-(4-chlorophenyl)urea]: 0.91 µM.
